From publication PMC5218480 (PLoS ONE, 2017) come the findings set out here.

The subject of the assay is MV-4-11 cells. The experiment in a line: Gene expression microarray analysis (Affymetrix PrimeView) and GSEA. The settings on record: ProbeSet 11723475_a_at; LIST B. It counts as cell-based, human. Further details: RFU PODN (11730768_x_at) / Fold change /veh PODN (11730768_x_at) / RFU LINC00158 (11744669_a_at) / Fold change /veh LINC00158 (11744669_a_at) / RFU DUSP10 (11751237_a_at) / Fold change /veh DUSP10 (11751237_a_at) / RFU ID3 (11757404_x_at) / Fold change /veh ID3 (11757404_x_at) / RFU PLEKHG5 (11737974_s_at) / Fold change /veh PLEKHG5 (11737974_s_at) / RFU LRRC4B (11730491_at) / Fold change /veh LRRC4B (11730491_at) / RFU GIMAP4 (11747438_a_at) / Fold change /veh GIMAP4 (11747438_a_at) / RFU KRT8 (11758183_x_at) / Fold change /veh KRT8 (11758183_x_at) / RFU CNN1 (11734310_a_at) / Fold change /veh CNN1 (11734310_a_at) / RFU VPS37D (11726825_at) / Fold change /veh VPS37D (11726825_at) / RFU C10orf10 (11716522_x_at) / Fold change /veh C10orf10 (11716522_x_at) / RFU KIR2DL2 /// KIR2DL4 /// KIR2DL5A /// KIR2DL5B /// KIR2DS1 /// KIR2DS2 /// KIR2DS3 /// KIR2DS4 /// KIR3DL3 /// KIR3DL3 /// KIR3DS1 (11738374_at) / Fold change /veh KIR2DL2 /// KIR2DL4 /// KIR2DL5A /// KIR2DL5B /// KIR2DS1 /// KIR2DS2 /// KIR2DS3 /// KIR2DS4 /// KIR3DL3 /// KIR3DL3 /// KIR3DS1 (11738374_at) / RFU C1QL1 (11718748_at) / Fold change /veh C1QL1 (11718748_at) / RFU TMPRSS4 (11747572_a_at) / Fold change /veh TMPRSS4 (11747572_a_at) / RFU HAMP (11756126_x_at) / Fold change /veh HAMP (11756126_x_at) / RFU RNFT2 (11725882_a_at) / Fold change /veh RNFT2 (11725882_a_at) / RFU NR4A2 (11747474_a_at) / Fold change /veh NR4A2 (11747474_a_at) / RFU ABCC12 (11746883_a_at) / Fold change /veh ABCC12 (11746883_a_at) / RFU TMEM136 (11760407_x_at) / Fold change /veh TMEM136 (11760407_x_at) / RFU CLDN22 /// WWC2 (11732394_at) / Fold change /veh CLDN22 /// WWC2 (11732394_at) / RFU HLA-DPB1 (11760878_x_at) / Fold change /veh HLA-DPB1 (11760878_x_at) / RFU SPINT1 (11716480_a_at) / Fold change /veh SPINT1 (11716480_a_at) / RFU GAP43 (11754022_s_at) / Fold change /veh GAP43 (11754022_s_at) / RFU A4GNT (11735810_at) / Fold change /veh A4GNT (11735810_at) / RFU PRB3 (11715151_x_at) / Fold change /veh PRB3 (11715151_x_at) / RFU TUBB4B (11761932_at) / Fold change /veh TUBB4B (11761932_at) / RFU CAPN14 (11732068_a_at) / Fold change /veh CAPN14 (11732068_a_at) / RFU TMCC2 (11721928_a_at) / Fold change /veh TMCC2 (11721928_a_at) / RFU IRGQ (11745062_a_at) / Fold change /veh IRGQ (11745062_a_at) / RFU FAM174B (11720279_a_at) / Fold change /veh FAM174B (11720279_a_at) / RFU TMPRSS4 (11748680_a_at) / Fold change /veh TMPRSS4 (11748680_a_at) / RFU FAM212B (11763350_a_at) / Fold change /veh FAM212B (11763350_a_at) / RFU PLEKHG5 (11743358_a_at) / Fold change /veh PLEKHG5 (11743358_a_at) / RFU ZSCAN30 (11745921_a_at) / Fold change /veh ZSCAN30 (11745921_a_at) / RFU CMKLR1 (11741424_a_at) / Fold change /veh CMKLR1 (11741424_a_at) / RFU LOC101060620 /// MAPK8IP1 (11723275_at) / Fold change /veh LOC101060620 /// MAPK8IP1 (11723275_at) / RFU SPTSSB (11747773_x_at) / Fold change /veh SPTSSB (11747773_x_at) / RFU PRSS12 (11739890_at) / Fold change /veh PRSS12 (11739890_at) / RFU BIN1 (11741810_x_at) / Fold change /veh BIN1 (11741810_x_at) / RFU WNT11 (11732464_a_at) / Fold change /veh WNT11 (11732464_a_at) / RFU C10orf10 (11716521_a_at) / Fold change /veh C10orf10 (11716521_a_at) / RFU C5orf56 (11738089_at) / Fold change /veh C5orf56 (11738089_at) / RFU CYB561 (11721691_x_at) / Fold change /veh CYB561 (11721691_x_at) / RFU ANKRD19P (11752326_a_at) / Fold change /veh ANKRD19P (11752326_a_at) / RFU OR2T12 /// OR2T33 /// OR2T8 (11738714_s_at) / Fold change /veh OR2T12 /// OR2T33 /// OR2T8 (11738714_s_at) / RFU VCAN (11748164_a_at) / Fold change /veh VCAN (11748164_a_at) / RFU JSRP1 (11732532_at) / Fold change /veh JSRP1 (11732532_at) / RFU KRTAP10-11 (11738290_x_at) / Fold change /veh KRTAP10-11 (11738290_x_at) / RFU MYO3A (11730013_a_at) / Fold change /veh MYO3A (11730013_a_at) / RFU EBF3 (11725865_a_at) / Fold change /veh EBF3 (11725865_a_at) / RFU CAMK2N1 (11719241_x_at) / Fold change /veh CAMK2N1 (11719241_x_at) / RFU C5orf56 (11738088_a_at) / Fold change /veh C5orf56 (11738088_a_at) / RFU OLFML3 (11715873_a_at) / Fold change /veh OLFML3 (11715873_a_at) / RFU LOC100653217 /// NTM (11731650_a_at) / Fold change /veh LOC100653217 /// NTM (11731650_a_at) / RFU MAPK11 (11762145_a_at) / Fold change /veh MAPK11 (11762145_a_at) / RFU FIZ1 (11724087_x_at) / Fold change /veh FIZ1 (11724087_x_at) / RFU OASL (11726364_x_at) / Fold change /veh OASL (11726364_x_at) / RFU SOX15 (11748057_x_at) / Fold change /veh SOX15 (11748057_x_at) / RFU CD79A (11719716_a_at) / Fold change /veh CD79A (11719716_a_at) / RFU HIST1H1D (11736915_at) / Fold change /veh HIST1H1D (11736915_at) / RFU CASKIN2 (11723855_a_at) / Fold change /veh CASKIN2 (11723855_a_at) / RFU LOC730098 (11760151_x_at) / Fold change /veh LOC730098 (11760151_x_at) / RFU OR4N2 (11742367_at) / Fold change /veh OR4N2 (11742367_at) / RFU PRRT2 (11749266_a_at) / Fold change /veh PRRT2 (11749266_a_at) / RFU SNX32 (11753110_a_at) / Fold change /veh SNX32 (11753110_a_at) / RFU CDHR5 (11726645_a_at) / Fold change /veh CDHR5 (11726645_a_at) / RFU RCAN1 (11760418_a_at) / Fold change /veh RCAN1 (11760418_a_at) / RFU FAM167A (11723789_a_at) / Fold change /veh FAM167A (11723789_a_at) / RFU FAM26E (11764081_at) / Fold change /veh FAM26E (11764081_at) / RFU ISYNA1 (11749810_s_at) / Fold change /veh ISYNA1 (11749810_s_at) / RFU ACY1 (11761880_at) / Fold change /veh ACY1 (11761880_at) / RFU 11764098_at / Fold change /veh 11764098_at / RFU SAMD14 (11745864_x_at) / Fold change /veh SAMD14 (11745864_x_at) / RFU NPB (11741838_a_at) / Fold change /veh NPB (11741838_a_at) / RFU TMPRSS6 (11731388_a_at) / Fold change /veh TMPRSS6 (11731388_a_at) / RFU KRTAP10-2 (11738614_at) / Fold change /veh KRTAP10-2 (11738614_at) / RFU ARHGAP8 /// PRR5-ARHGAP8 (11727945_x_at) / Fold change /veh ARHGAP8 /// PRR5-ARHGAP8 (11727945_x_at) / RFU KRTAP5-7 /// NADSYN1 (11734609_at) / Fold change /veh KRTAP5-7 /// NADSYN1 (11734609_at) / RFU RASL12 (11751679_a_at) / Fold change /veh RASL12 (11751679_a_at) / RFU CDKN2B (11736163_a_at) / Fold change /veh CDKN2B (11736163_a_at) / RFU PRF1 (11729649_at) / Fold change /veh PRF1 (11729649_at) / RFU, ZNF638 /// ZNF638-IT1 / Fold change vs veh, ZNF638 /// ZNF638-IT1 / RFU, PANK3 / Fold change vs veh, PANK3 / RFU, SH3YL1 / Fold change vs veh, SH3YL1 / RFU, ZEB2 / Fold change vs veh, ZEB2 / RFU, NRIP1 / Fold change vs veh, NRIP1 / RFU, PTTG1IP / Fold change vs veh, PTTG1IP / RFU, CAPN2 / Fold change vs veh, CAPN2 / RFU, MED14 / Fold change vs veh, MED14 / RFU, SNORA58 / Fold change vs veh, SNORA58 / RFU, C1orf63 / Fold change vs veh, C1orf63 / RFU, LRRFIP1 / Fold change vs veh, LRRFIP1 / RFU, NDUFAF7 / Fold change vs veh, NDUFAF7 / RFU, SLC12A2 / Fold change vs veh, SLC12A2 / RFU, IBTK / Fold change vs veh, IBTK / RFU, ESF1 / Fold change vs veh, ESF1 / Fold change vs veh, TMEM50B / RFU, TAOK1 / Fold change vs veh, TAOK1 / RFU, ACBD3 / Fold change vs veh, ACBD3 / RFU, TMA16 / Fold change vs veh, TMA16 / RFU, RWDD3 / Fold change vs veh, RWDD3 / RFU, BCAT1 / Fold change vs veh, BCAT1 / RFU, EDEM3 / Fold change vs veh, EDEM3 / RFU, TMEM33 / Fold change vs veh, TMEM33 / RFU, WDR75 / Fold change vs veh, WDR75 / RFU, AHCTF1 / Fold change vs veh, AHCTF1 / RFU, TFRC / Fold change vs veh, TFRC / RFU, ZDHHC17 / Fold change vs veh, ZDHHC17 / RFU, NOM1 / Fold change vs veh, NOM1 / RFU, ARL8B / Fold change vs veh, ARL8B / RFU, ZBTB11 / Fold change vs veh, ZBTB11 / RFU, TAMM41 / Fold change vs veh, TAMM41 / RFU, KIAA1704 /// LOC100996395 / Fold change vs veh, KIAA1704 /// LOC100996395 / RFU, ING1 / Fold change vs veh, ING1 / RFU, TRMT61B / Fold change vs veh, TRMT61B / RFU, FUBP3 / Fold change vs veh, FUBP3 / RFU, TP53 / Fold change vs veh, TP53 / RFU, TNKS2 / Fold change vs veh, TNKS2 / RFU, ZFP14 / Fold change vs veh, ZFP14 / RFU, ACTR2 / Fold change vs veh, ACTR2 / RFU, PPP3R1 / Fold change vs veh, PPP3R1 / RFU, PIK3R1 / Fold change vs veh, PIK3R1 / RFU, HNRNPA1 / Fold change vs veh, HNRNPA1 / RFU, RNF170 / Fold change vs veh, RNF170 / RFU, ZNF28 / Fold change vs veh, ZNF28 / RFU, RNGTT / Fold change vs veh, RNGTT / RFU, OGT / Fold change vs veh, OGT / RFU, BRD1 / Fold change vs veh, BRD1 / RFU, MARS / Fold change vs veh, MARS / RFU, ZNF655 / Fold change vs veh, ZNF655 / RFU, FAHD1 / Fold change vs veh, FAHD1 / RFU, BDP1 / Fold change vs veh, BDP1 / RFU, LRRCC1 / Fold change vs veh, LRRCC1 / RFU, ARID1A / Fold change vs veh, ARID1A / RFU, ZNF146 / Fold change vs veh, ZNF146 / RFU, ZNF330 / Fold change vs veh, ZNF330 / RFU, GPN3 / Fold change vs veh, GPN3 / RFU, C9orf123 / Fold change vs veh, C9orf123 / RFU, N4BP2L2 / Fold change vs veh, N4BP2L2 / RFU, ARFIP1 / Fold change vs veh, ARFIP1 / RFU, FAM179B / Fold change vs veh, FAM179B / RFU, BCL10 / Fold change vs veh, BCL10 / RFU, UHRF1BP1L / Fold change vs veh, UHRF1BP1L / RFU, BET1 / Fold change vs veh, BET1 / RFU, CNOT2 / Fold change vs veh, CNOT2 / RFU, ZNF268 / Fold change vs veh, ZNF268 / Fold change vs veh, ZNF507 / RFU, DGCR2 / Fold change vs veh, DGCR2 / RFU, WDSUB1 / Fold change vs veh, WDSUB1 / Fold change vs veh, HSP90B1 /// MIR3652 / RFU, ADSS / Fold change vs veh, ADSS / RFU, GK / Fold change vs veh, GK / RFU, ZNF148 / Fold change vs veh, ZNF148 / RFU, TAF9 / Fold change vs veh, TAF9 / RFU, SLC1A5 / Fold change vs veh, SLC1A5 / RFU, SLMO2 / Fold change vs veh, SLMO2 / RFU, ABCC4 / Fold change vs veh, ABCC4 / RFU, LOC101060439 /// RAP1B / Fold change vs veh, LOC101060439 /// RAP1B / RFU, RFX7 / Fold change vs veh, RFX7 / RFU, GTPBP10 / Fold change vs veh, GTPBP10 / RFU, CNEP1R1 / Fold change vs veh, CNEP1R1 / RFU, BIVM-ERCC5 /// ERCC5 / Fold change vs veh, BIVM-ERCC5 /// ERCC5 / RFU, ILF3 / Fold change vs veh, ILF3 / RFU 11762660_at / Fold change /veh 11762660_at / RFU VCAN (11757783_s_at) / Fold change /veh VCAN (11757783_s_at) / RFU DDX43 (11728927_at) / Fold change /veh DDX43 (11728927_at) / RFU KRT8 (11758188_x_at) / Fold change /veh KRT8 (11758188_x_at) / RFU NKD1 (11759106_at) / Fold change /veh NKD1 (11759106_at) / RFU SRD5A1 (11742802_a_at) / Fold change /veh SRD5A1 (11742802_a_at) / RFU TPSAB1 /// TPSB2 (11721975_s_at) / Fold change /veh TPSAB1 /// TPSB2 (11721975_s_at) / RFU GSTM3 (11746129_a_at) / Fold change /veh GSTM3 (11746129_a_at) / RFU IL23R (11737362_x_at) / Fold change /veh IL23R (11737362_x_at) / RFU TMEM51 (11727254_a_at) / Fold change /veh TMEM51 (11727254_a_at) / RFU PIWIL2 (11732686_x_at) / Fold change /veh PIWIL2 (11732686_x_at) / RFU ORM1 (11744905_x_at) / Fold change /veh ORM1 (11744905_x_at) / RFU CCDC152 (11743942_at) / Fold change /veh CCDC152 (11743942_at) / RFU ECM1 (11717891_a_at) / Fold change /veh ECM1 (11717891_a_at) / RFU IL23R (11748794_a_at) / Fold change /veh IL23R (11748794_a_at) / RFU TNFAIP8L3 (11732012_x_at) / Fold change /veh TNFAIP8L3 (11732012_x_at) / RFU MBOAT4 (11741988_at) / Fold change /veh MBOAT4 (11741988_at) / RFU 11764193_at / Fold change /veh 11764193_at / RFU TMEM53 (11763286_at) / Fold change /veh TMEM53 (11763286_at) / RFU MAGEB2 (11727129_at) / Fold change /veh MAGEB2 (11727129_at) / RFU TMEM200A (11744735_a_at) / Fold change /veh TMEM200A (11744735_a_at) / RFU CCDC152 (11751479_a_at) / Fold change /veh CCDC152 (11751479_a_at) / RFU FAM211A (11726209_a_at) / Fold change /veh FAM211A (11726209_a_at) / RFU RGS16 (11746705_a_at) / Fold change /veh RGS16 (11746705_a_at) / RFU VCAN (11755009_s_at) / Fold change /veh VCAN (11755009_s_at) / RFU RHOB (11743442_s_at) / Fold change /veh RHOB (11743442_s_at) / RFU RGS16 (11720943_a_at) / Fold change /veh RGS16 (11720943_a_at) / RFU RGS16 (11720944_at) / Fold change /veh RGS16 (11720944_at) / RFU, VPS4B / Fold change vs veh, VPS4B / RFU, CREB1 / Fold change vs veh, CREB1 / RFU, DNAJC13 / Fold change vs veh, DNAJC13 / RFU, GNAQ / Fold change vs veh, GNAQ / RFU, CDK5R1 / Fold change vs veh, CDK5R1 / RFU, ZRANB3 / Fold change vs veh, ZRANB3 / RFU, CUL4A / Fold change vs veh, CUL4A / RFU, CCNY / Fold change vs veh, CCNY / RFU, UFL1 / Fold change vs veh, UFL1 / RFU, COG3 / Fold change vs veh, COG3 / RFU, DIAPH2 / Fold change vs veh, DIAPH2 / RFU, SKA2 / Fold change vs veh, SKA2 / RFU, AFF3 / Fold change vs veh, AFF3 / RFU, LMF1 / Fold change vs veh, LMF1 / RFU, IPO11 / Fold change vs veh, IPO11 / RFU, DFFB / Fold change vs veh, DFFB / RFU, FOXP1 / Fold change vs veh, FOXP1 / RFU, CARD8 / Fold change vs veh, CARD8 / RFU, STRN3 / Fold change vs veh, STRN3 / RFU, ADK / Fold change vs veh, ADK / RFU, RASSF2 / Fold change vs veh, RASSF2 / RFU, WIPF1 / Fold change vs veh, WIPF1 / RFU, LARP1B / Fold change vs veh, LARP1B / RFU, RASA1 / Fold change vs veh, RASA1 / RFU, RB1 / Fold change vs veh, RB1 / RFU, PPFIA1 / Fold change vs veh, PPFIA1 / RFU, MAT2A / Fold change vs veh, MAT2A / RFU, CCT5 / Fold change vs veh, CCT5 / RFU, WDR92 / Fold change vs veh, WDR92 / RFU, CUX1 / Fold change vs veh, CUX1 / RFU, TTC7A / Fold change vs veh, TTC7A / RFU, TMEM135 / Fold change vs veh, TMEM135 / RFU, DEPTOR / Fold change vs veh, DEPTOR / RFU, CPM / Fold change vs veh, CPM / RFU, DNAJB6 / Fold change vs veh, DNAJB6 / RFU, CACNA2D3 / Fold change vs veh, CACNA2D3 / RFU, DTX4 / Fold change vs veh, DTX4 / RFU, TFCP2 / Fold change vs veh, TFCP2 / RFU, GMCL1 /// GMCL1P1 / Fold change vs veh, GMCL1 /// GMCL1P1 / RFU, AEBP2 / Fold change vs veh, AEBP2 / RFU, SNHG1 /// SNORD22 /// SNORD25 /// SNORD26 /// SNORD27 /// SNORD28 /// SNORD29 /// SNORD31 / Fold change vs veh, SNHG1 /// SNORD22 /// SNORD25 /// SNORD26 /// SNORD27 /// SNORD28 /// SNORD29 /// SNORD31 / Fold change (Aza/veh), C12orf56 (ProbeSet 11735607_a_at) / Fold change (ACY-1035/veh), C12orf56 (ProbeSet 11735607_a_at) / Fold change (Aza/veh), FGFR1OP (ProbeSet 11751329_s_at) / Fold change (ACY-1035/veh), FGFR1OP (ProbeSet 11751329_s_at) / Fold change (Aza/veh), VPS36 (ProbeSet 11739960_a_at) / Fold change (ACY-1035/veh), VPS36 (ProbeSet 11739960_a_at) / RFU SYPL1 (11715823_x_at) / Fold change /veh SYPL1 (11715823_x_at) / RFU IGFBP7 (11715501_s_at) / Fold change /veh IGFBP7 (11715501_s_at) / RFU REEP3 (11722064_at) / Fold change /veh REEP3 (11722064_at) / RFU IGLL1 (11728026_x_at) / Fold change /veh IGLL1 (11728026_x_at): dose or concentration left out as unconfirmed.

Structures are written as SMILES.

As for `Nc1ccc(-c2cccs2)cc1NC(=O)c1ccc2c(c1)cc(C1CC1)n2CCN1CCOCC1` [ACY-1035], the “Fold change vs veh, TRMT61B” value worked out at 0.88.
